Reference: PubChem BioAssay (NCI)
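Each compound was tested at five concentrations against cells in 96-well plates for 48 hours. GI50 is the concentration that inhibits growth by half. Definition used: TGI = concentration required for complete inhibition of growth.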

Key:
Assay in all cases: inhibition of tumour cell growth, NCI panel, 48 h
SK-MEL-5 melanoma = system: SK-MEL-5 melanoma
SW-620 colon = system: SW-620 colon
HT29 colon = system: HT29 colon
NCI/ADR-RES ovarian = system: NCI/ADR-RES ovarian
CAKI-1 renal = system: CAKI-1 renal
PC-3 prostate = system: PC-3 prostate
ACHN renal = system: ACHN renal
SN12C renal = system: SN12C renal
HCT-116 colon = system: HCT-116 colon
BT-549 breast = system: BT-549 breast
TK-10 renal = system: TK-10 renal
SF-539 CNS = system: SF-539 CNS
OVCAR-8 ovarian = system: OVCAR-8 ovarian
UACC-62 melanoma = system: UACC-62 melanoma
SK-MEL-2 melanoma = system: SK-MEL-2 melanoma
OVCAR-3 ovarian = system: OVCAR-3 ovarian
KM12 colon = system: KM12 colon
SF-268 CNS = system: SF-268 CNS
SF-295 CNS = system: SF-295 CNS
SK-OV-3 ovarian = system: SK-OV-3 ovarian
T-47D breast = system: T-47D breast
HCT-15 colon = system: HCT-15 colon
HCC-2998 colon = system: HCC-2998 colon
COLO 205 colon = system: COLO 205 colon
RXF 393 renal = system: RXF 393 renal
OVCAR-5 ovarian = system: OVCAR-5 ovarian
UACC-257 melanoma = system: UACC-257 melanoma
A549 NSCLC = system: A549 NSCLC
NCI-H522 lung = system: NCI-H522 lung
UO-31 renal = system: UO-31 renal
786-0 renal = system: 786-0 renal
SNB-75 CNS = system: SNB-75 CNS
SNB-19 CNS = system: SNB-19 CNS
U251 CNS = system: U251 CNS
HL-60(TB) leukemia = system: HL-60(TB) leukemia
MOLT-4 leukemia = system: MOLT-4 leukemia
HS 578T breast = system: HS 578T breast
MALME-3M melanoma = system: MALME-3M melanoma
LOX IMVI melanoma = system: LOX IMVI melanoma
NCI-H460 lung = system: NCI-H460 lung
HOP-92 NSCLC = system: HOP-92 NSCLC
IGROV1 ovarian = system: IGROV1 ovarian
DU-145 prostate = system: DU-145 prostate
MDA-MB-231 breast = system: MDA-MB-231 breast
A498 renal = system: A498 renal
CCRF-CEM leukemia = system: CCRF-CEM leukemia
NCI-H226 lung = system: NCI-H226 lung
SK-MEL-28 melanoma = system: SK-MEL-28 melanoma
OVCAR-4 ovarian = system: OVCAR-4 ovarian
EKVX NSCLC = system: EKVX NSCLC
HOP-62 NSCLC = system: HOP-62 NSCLC
MDA-MB-435 = system: MDA-MB-435
MCF7 breast = system: MCF7 breast

In the case of `Oc1cc(Cn2cnc3c(Cl)nc(Cl)nc32)ccc1C12CC3CC(CC(C3)C1)C2`, the GI50 (SK-MEL-5 melanoma) is reported as 15 µM, the TGI (SK-MEL-5 melanoma) is reported as 32 µM and the GI50 (SW-620 colon) is reported as 24.6 µM. It also gave a TGI (SW-620 colon) of 56.8 µM, a GI50 (HT29 colon) of 16 µM and a TGI (HT29 colon) of 29.5 µM. It also gave a GI50 (NCI/ADR-RES ovarian) of 21.9 µM, a TGI (NCI/ADR-RES ovarian) of 57.2 µM and a GI50 (CAKI-1 renal) of 15.4 µM. It also gave a TGI (CAKI-1 renal) of 31.3 µM, a GI50 (PC-3 prostate) of 15.5 µM and a TGI (PC-3 prostate) of 28.9 µM. The GI50 (ACHN renal) was 17.9 µM, the TGI (ACHN renal) was 31.7 µM and the GI50 (SN12C renal) was 16.5 µM. The TGI (SN12C renal) was 32.2 µM, the GI50 (HCT-116 colon) was 14 µM and the TGI (HCT-116 colon) was 26.9 µM. For the same molecule, the GI50 (BT-549 breast) was 17.5 µM, the TGI (BT-549 breast) was 34.4 µM and the GI50 (TK-10 renal) was 19.5 µM. For the same molecule, the TGI (TK-10 renal) was 38.8 µM, the GI50 (SF-539 CNS) was 23.6 µM and the TGI (SF-539 CNS) was 45.1 µM. It also gave a GI50 (OVCAR-8 ovarian) of 23.2 µM, a TGI (OVCAR-8 ovarian) of 58 µM and a GI50 (UACC-62 melanoma) of 16.8 µM. For the same molecule, the TGI (UACC-62 melanoma) was 30.5 µM, the GI50 (SK-MEL-2 melanoma) was 18.4 µM and the TGI (SK-MEL-2 melanoma) was 38 µM. It also gave a GI50 (OVCAR-3 ovarian) of 18 µM, a TGI (OVCAR-3 ovarian) of 36.3 µM and a GI50 (KM12 colon) of 17.5 µM. The TGI (KM12 colon) was 34.4 µM, the GI50 (SF-268 CNS) was 14.4 µM and the TGI (SF-268 CNS) was 28 µM. The GI50 (SF-295 CNS) was 20.5 µM, the TGI (SF-295 CNS) was 47.9 µM and the GI50 (SK-OV-3 ovarian) was 24.7 µM. It also gave a TGI (SK-OV-3 ovarian) of 55.1 µM, a GI50 (T-47D breast) of 21.8 µM and a TGI (T-47D breast) of 80.6 µM. For the same molecule, the GI50 (HCT-15 colon) was 16.3 µM, the TGI (HCT-15 colon) was 29.8 µM and the GI50 (HCC-2998 colon) was 16 µM. It also gave a TGI (HCC-2998 colon) of 30.4 µM, a GI50 (COLO 205 colon) of 19.9 µM and a TGI (COLO 205 colon) of 37.2 µM. For the same molecule, the GI50 (RXF 393 renal) was 15.2 µM, the TGI (RXF 393 renal) was 29.3 µM and the GI50 (OVCAR-5 ovarian) was 20.2 µM. It also gave a TGI (OVCAR-5 ovarian) of 45.7 µM, a GI50 (UACC-257 melanoma) of 19 µM and a TGI (UACC-257 melanoma) of 39.2 µM. For the same molecule, the GI50 (A549 NSCLC) was 18.1 µM, the TGI (A549 NSCLC) was 33.2 µM and the GI50 (NCI-H522 lung) was 15.2 µM. The TGI (NCI-H522 lung) was 28.5 µM, the GI50 (UO-31 renal) was 17.3 µM and the TGI (UO-31 renal) was 31.1 µM. It also gave a GI50 (786-0 renal) of 18.5 µM, a TGI (786-0 renal) of 34.4 µM and a GI50 (SNB-75 CNS) of 16.4 µM. It also gave a TGI (SNB-75 CNS) of 32.2 µM, a GI50 (SNB-19 CNS) of 17.6 µM and a TGI (SNB-19 CNS) of 31.4 µM. It also gave a GI50 (U251 CNS) of 16.6 µM, a TGI (U251 CNS) of 30.2 µM and a GI50 (HL-60(TB) leukemia) of 4.36 µM. For the same molecule, the TGI (HL-60(TB) leukemia) was 15.7 µM, the GI50 (MOLT-4 leukemia) was 3.72 µM and the TGI (MOLT-4 leukemia) was 11.2 µM. The GI50 (HS 578T breast) was 49.6 µM, the TGI (HS 578T breast) was over 100 µM and the GI50 (MALME-3M melanoma) was 11.8 µM. The TGI (MALME-3M melanoma) was 27.8 µM, the GI50 (LOX IMVI melanoma) was 4.12 µM and the TGI (LOX IMVI melanoma) was 18.6 µM. The GI50 (NCI-H460 lung) was 16.4 µM, the TGI (NCI-H460 lung) was 30.2 µM and the GI50 (HOP-92 NSCLC) was 14.6 µM. For the same molecule, the TGI (HOP-92 NSCLC) was 27.8 µM, the GI50 (IGROV1 ovarian) was 15.8 µM and the TGI (IGROV1 ovarian) was 30 µM. The GI50 (DU-145 prostate) was 16.2 µM, the TGI (DU-145 prostate) was 29.7 µM and the GI50 (MDA-MB-231 breast) was 15 µM. For the same molecule, the TGI (MDA-MB-231 breast) was 30.3 µM, the GI50 (A498 renal) was over 100 µM and the TGI (A498 renal) was over 100 µM. The GI50 (CCRF-CEM leukemia) was 2.17 µM, the TGI (CCRF-CEM leukemia) was 5.78 µM and the GI50 (NCI-H226 lung) was 23.3 µM. The TGI (NCI-H226 lung) was 63.7 µM, the GI50 (SK-MEL-28 melanoma) was 16.9 µM and the TGI (SK-MEL-28 melanoma) was 31 µM. It also gave a GI50 (OVCAR-4 ovarian) of 16.4 µM, a TGI (OVCAR-4 ovarian) of 30 µM and a GI50 (EKVX NSCLC) of 23.8 µM. The TGI (EKVX NSCLC) was 53.1 µM, the GI50 (HOP-62 NSCLC) was 16.2 µM and the TGI (HOP-62 NSCLC) was 29.8 µM. It also gave a GI50 (MDA-MB-435) of 19.9 µM, a TGI (MDA-MB-435) of 48.6 µM and a GI50 (MCF7 breast) of 15 µM. For the same molecule, the TGI (MCF7 breast) was 28.3 µM.
